Measurements taken from patent US12565475B2, “Small molecule compound inhibiting signal transmission path of TLR7 and TLR9 and use thereof” (AJOU UNIVERSITY INDUSTRY-ACADEMIC COOPERATION FOUNDATION, priority 2019, dated 2026).

Biological target: T1, TLR4 (Mus musculus, UniProt Q9QUK6)
T1 construct: endogenous in cells; host or cells: RAW 264.7
T1 sequence (Q9QUK6 26-835): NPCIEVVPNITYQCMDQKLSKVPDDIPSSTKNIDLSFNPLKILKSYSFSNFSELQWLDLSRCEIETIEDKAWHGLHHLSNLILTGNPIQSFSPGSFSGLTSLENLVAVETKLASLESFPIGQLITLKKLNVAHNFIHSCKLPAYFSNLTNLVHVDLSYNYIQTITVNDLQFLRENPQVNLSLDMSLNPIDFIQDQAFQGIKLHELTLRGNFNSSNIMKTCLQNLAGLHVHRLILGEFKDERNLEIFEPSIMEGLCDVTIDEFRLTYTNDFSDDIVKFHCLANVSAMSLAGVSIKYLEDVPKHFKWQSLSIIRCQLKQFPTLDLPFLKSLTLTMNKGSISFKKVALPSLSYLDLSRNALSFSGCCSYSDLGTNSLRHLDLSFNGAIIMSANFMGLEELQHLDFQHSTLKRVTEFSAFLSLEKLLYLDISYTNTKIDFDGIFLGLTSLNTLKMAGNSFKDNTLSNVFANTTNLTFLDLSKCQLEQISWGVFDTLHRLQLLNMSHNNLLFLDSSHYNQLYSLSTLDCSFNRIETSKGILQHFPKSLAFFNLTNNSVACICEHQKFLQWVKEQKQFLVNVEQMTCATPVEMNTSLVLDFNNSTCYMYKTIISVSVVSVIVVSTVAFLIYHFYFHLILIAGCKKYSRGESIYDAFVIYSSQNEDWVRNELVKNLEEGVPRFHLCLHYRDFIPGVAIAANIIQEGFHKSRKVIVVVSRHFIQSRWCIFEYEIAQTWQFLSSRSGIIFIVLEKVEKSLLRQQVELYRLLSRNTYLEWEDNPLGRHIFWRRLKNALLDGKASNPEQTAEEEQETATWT
T1 sequence (Q9JHF9 19-160 partner): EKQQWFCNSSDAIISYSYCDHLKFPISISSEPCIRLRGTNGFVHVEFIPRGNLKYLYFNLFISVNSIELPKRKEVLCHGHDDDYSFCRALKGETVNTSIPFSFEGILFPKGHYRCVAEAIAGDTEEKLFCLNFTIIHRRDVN
Experiment: TLR4-mediated TNF-α secretion (LPS), ELISA
Assay type: cell-based, murine
Settings: RAW 264.7, 10 or 20 μM
Description: Agonists specific to TLR1/TLR2 (Pam3CSK4), TLR2/TLR6 (FSL-1), TLR3 (Poly I:C), TLR7 (imiquimod), and TLR8 (TL8-506) were purchased from InvivoGen Ltd. (Hong-Kong, China), and a TLR4-specific agonist (LPS from E. coli O111:B4) was purchased from Sigma-Aldrich, Inc. For TLR9-specific stimulation, class C CpG-ODN (ODN2395, 5′-TCGTCGTTTTCGGCGCGCGCCG-3′) having full phosphorothioate backbone modification was synthesized (Bioneer, Inc., Daejeon, Korea). All TLR agonists were dissolved in deionized water and applied to a culture media for TLR activation. The cells were treated with test compounds or a control medium for 1 hour, and then stimulated with a TLR agonist for 4 hours, or 24 hours in the case of poly(I:C), and the cytokine secretion was monitored.
RAW 264.7 or differentiated THP-1 cell lines were seeded onto a 96-well culture plate at a density of 2×10^4 cells/well. The cells were treated with test compounds for 1 hour followed by the stimulation with TLR agonists for 4 hours. The supernatant was transferred to pre-coated assay plates, and the secretion levels of mouse and human TNF-α were measured by respective ELISA kits (Invitrogen, Carlsbad, CA, USA). […] Absorbance was measured by a microplate reader spectrophotometer (Molecular Devices, Inc., San Jose, CA, USA), and data was interpolated from a standard curve using SoftMax Pro 5.3 software (Molecular Devices, Inc.). […]

COc1ccc(CNc2ncc(-c3ccc4c(c3)OCO4)n2C)c(OC)c1 [TIC10-7, 5-(2H-1,3-benzodioxol-5-yl)-N-[(2,4-dimethoxyphenyl)methyl]-1-methyl-1H-imidazol-2-amine]
effect on TLR4-mediated cytokine (TNF-α) production: no effect
